{"source": "paper PMC12177760", "about": "“In Silico Discovery of a Novel Antiviral Scaffold for SARS-CoV‑2 Targeting the Spike Glycoprotein through the Fatty Acid Binding Pocket” (ACS Omega, 2025)", "system": "SARS-CoV-2 Delta variant in Vero E6 cells", "test": "microbe, parasite or virus in culture", "type": "cell-based"}
{"smiles": "CC(c1ccc(-n2cncn2)cc1)N(C)C(=O)CCC(=O)N1CCC(c2ccccc2)=N1", "note": "(centres unmarked) [compound 36]", "values": [{"measurement": "EC50", "setting": "Severe acute respiratory syndrome coronavirus 2, Vero C1008, read-out: EC50 (inhibition of Delta variant-induced CPE)", "value": 5.77, "unit": "µM"}, {"measurement": "inhibition at 33 µM", "setting": "Severe acute respiratory syndrome coronavirus 2, Vero C1008, 33 μM, read-out: maximum inhibition of CPE", "value": 78, "unit": "%"}]}
